In PubChem BioAssay AID330 (DTP/NCI, 2004):
Several values for one entry are separate records, joined by “and”; a condition that tells them apart may be missing. Equal values may be shown once. Toxic doses and inconclusive results are not listed.

Tested on: P388 leukemia ip, CD2F1 mice, survival T/C
Assay: NCI In Vivo Anticancer Drug Screen. Data for tumor model P388 Leukemia (intraperitoneal) in CD2F1 (CDF1) mice
Conditions: endpoint: median survival time, higher = longer survival
Method in brief: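 Mice carrying the transplanted tumor received test compound or vehicle. Survival was recorded in each group, and the value is the treated-group measurement divided by that of the vehicle-treated control group.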

[1] = dose: 60.0 mg/kg/injection, schedule: Q01DX005 (ip), vehicle: Klucel (hydroxypropylcellulose) (HPC)
[2] = dose: 120.0 mg/kg/injection, schedule: Q01DX005 (ip), vehicle: Klucel (hydroxypropylcellulose) (HPC)
[3] = dose: 240.0 mg/kg/injection, schedule: Q01DX005 (ip), vehicle: Klucel (hydroxypropylcellulose) (HPC)
[4] = dose: 100.0 mg/kg/injection, schedule: Q01DX001 (ip), vehicle: Klucel (hydroxypropylcellulose) (HPC)
[5] = dose: 200.0 mg/kg/injection, schedule: Q01DX001 (ip), vehicle: Klucel (hydroxypropylcellulose) (HPC)
[6] = dose: 6.25 mg/kg/injection, schedule: Q01DX009 (ip), vehicle: saline
[7] = dose: 12.5 mg/kg/injection, schedule: Q01DX009 (ip), vehicle: saline
[8] = dose: 25.0 mg/kg/injection, schedule: Q01DX009 (ip), vehicle: saline
[9] = dose: 60.0 mg/kg/injection, schedule: Q01DX005 (ip), vehicle: saline with Tween-80
[10] = dose: 120.0 mg/kg/injection, schedule: Q01DX005 (ip), vehicle: saline with Tween-80
[11] = dose: 240.0 mg/kg/injection, schedule: Q01DX005 (ip), vehicle: saline with Tween-80
[12] = dose: 15.0 mg/kg/injection, schedule: Q01DX005 (ip), vehicle: saline with Tween-80
[13] = dose: 30.0 mg/kg/injection, schedule: Q01DX005 (ip), vehicle: saline with Tween-80
[14] = dose: 50.0 mg/kg/injection, schedule: Q01DX005 (ip), vehicle: saline with Tween-80
[15] = dose: 100.0 mg/kg/injection, schedule: Q01DX005 (ip), vehicle: saline with Tween-80

SMILES: O=C1SC(Nc2ccccc2)/C(=N\N=C2/C(Nc3ccccc3)SC(=O)N2Cc2ccccc2)N1Cc1ccccc1 (configuration not stated)
- T/C (dose: 100.0 mg/kg/injection, schedule: Q04DX002 (ip), vehicle: Klucel (hydroxypropylcellulose) (HPC)): 86 % of control
- T/C (dose: 200.0 mg/kg/injection, schedule: Q04DX002 (ip), vehicle: Klucel (hydroxypropylcellulose) (HPC)): 94 % of control
- T/C (dose: 400.0 mg/kg/injection, schedule: Q04DX002 (ip), vehicle: Klucel (hydroxypropylcellulose) (HPC)): 91 % of control

SMILES: CCOC(=O)C1C(c2cc(OC)c(OC)c(OC)c2)c2cc3c(cc2OC1(C)N1CCCC1)OCO3 (configuration not stated)
- T/C [1]: 97 % of control
- T/C [2]: 96 % of control
- T/C [3]: 96 % of control

SMILES: O=c1c2nccnc2nc2n1CCS2
- T/C (dose: 100.0 mg/kg/injection, schedule: Q04DX003 (ip), vehicle: Klucel (hydroxypropylcellulose) (HPC)): 100 % of control
- T/C (dose: 200.0 mg/kg/injection, schedule: Q04DX003 (ip), vehicle: Klucel (hydroxypropylcellulose) (HPC)): 101 % of control
- T/C (dose: 400.0 mg/kg/injection, schedule: Q04DX003 (ip), vehicle: Klucel (hydroxypropylcellulose) (HPC)): 107 % of control

SMILES: O=C(Nc1ccccc1)N1CC2(CN1)CNN(C(=O)Nc1ccccc1)C2
- T/C (dose: 50.0 mg/kg/injection, schedule: Q01DX001 (ip), vehicle: Klucel (hydroxypropylcellulose) (HPC)): 103 % of control
- T/C [4]: 100 % of control
- T/C [5]: 91 % of control

SMILES: OCC1CC(c2ccccc2)=NO1 (configuration not stated)
- T/C [1]: 101 % of control
- T/C [2]: 100 % of control
- T/C [3]: 101 % of control

SMILES: O=C1CCSC(=S)N1c1ccc(F)cc1F
- T/C [6]: 92 % of control
- T/C [7]: 94 % of control
- T/C [8]: 91 % of control
- T/C (dose: 100.0 mg/kg/injection, schedule: Q01DX009 (ip), vehicle: saline): 96 % of control
- T/C (dose: 200.0 mg/kg/injection, schedule: Q01DX009 (ip), vehicle: saline): 90 % of control
- T/C (dose: 200.0 mg/kg/injection, schedule: Q01DX009 (ip), vehicle: suspension in saline): 92 % of control

SMILES: Cc1ccc(O)c(C2CC(C#N)CCN2C)c1 (configuration not stated)
- T/C [9]: 98 % of control
- T/C [10]: 100 % of control
- T/C [11]: 105 % of control

SMILES: CC/C([O-])=C1/C(=O)N(c2ccccc2)N=C1C.CC/C([O-])=C1/C(=O)N(c2ccccc2)N=C1C.[Cu+2]
- T/C [12]: 100 % of control
- T/C [13]: 107 % of control
- T/C [9]: 91 % of control and 94 % of control
- T/C [10]: 100 % of control

SMILES: Cc1ccc(S(=O)(=O)N/N=C/c2c(Br)nc3sccn23)cc1
- T/C [4]: 106 % of control
- T/C [5]: 108 % of control
- T/C (dose: 400.0 mg/kg/injection, schedule: Q01DX001 (ip), vehicle: Klucel (hydroxypropylcellulose) (HPC)): 106 % of control

SMILES: COc1cc2c(c(OC)c1OC)-c1ccc(OC)c(=O)cc1[C@@H](N(C)Cc1ccccc1O)CC2
- T/C (dose: 1.25 mg/kg/injection, schedule: Q01DX009 (ip), vehicle: Klucel (hydroxypropylcellulose) (HPC)): 97 % of control
- T/C (dose: 2.5 mg/kg/injection, schedule: Q01DX009 (ip), vehicle: Klucel (hydroxypropylcellulose) (HPC)): 97 % of control
- T/C (dose: 5.0 mg/kg/injection, schedule: Q01DX009 (ip), vehicle: Klucel (hydroxypropylcellulose) (HPC)): 111 % of control
- T/C (dose: 20.0 mg/kg/injection, schedule: Q01DX009 (ip), vehicle: Klucel (hydroxypropylcellulose) (HPC)): 166 % of control and 188 % of control

SMILES: NCCCCC1(CCCCN)OCCO1
- T/C [7]: 95 % of control
- T/C [8]: 95 % of control
- T/C (dose: 50.0 mg/kg/injection, schedule: Q01DX009 (ip), vehicle: saline): 100 % of control

SMILES: O=C1/C(=C\c2ccccc2)SC(=S)N1c1cccc(Br)c1
- T/C (dose: 25.0 mg/kg/injection, schedule: Q01DX005 (ip), vehicle: saline with Tween-80): 87 % of control
- T/C [14]: 97 % of control
- T/C [15]: 106 % of control

SMILES: CN(C=O)COC(=O)c1ccccc1
- T/C (dose: 31.25 mg/kg/injection, schedule: Q01DX005 (ip), vehicle: distilled water + Tween-80): 104 % of control
- T/C (dose: 62.5 mg/kg/injection, schedule: Q01DX005 (ip), vehicle: distilled water + Tween-80): 96 % of control
- T/C (dose: 125.0 mg/kg/injection, schedule: Q01DX005 (ip), vehicle: distilled water + Tween-80): 93 % of control
- T/C (dose: 250.0 mg/kg/injection, schedule: Q01DX005 (ip), vehicle: distilled water + Tween-80): 104 % of control

SMILES: Cc1c2oc3c(C)ccc(C(=O)NC(C(=O)NC(C(=O)NCCO)C(C)C)C(C)O)c3nc-2c(C(=O)NC(C(=O)NC(C(=O)NCCO)C(C)C)C(C)O)c(N)c1=O (configuration not stated)
- T/C (dose: 0.05 mg/kg/injection, schedule: Q01DX009 (ip), vehicle: water): 99 % of control
- T/C (dose: 0.1 mg/kg/injection, schedule: Q01DX009 (ip), vehicle: water): 100 % of control
- T/C (dose: 0.2 mg/kg/injection, schedule: Q01DX009 (ip), vehicle: water): 100 % of control
- T/C (dose: 0.4 mg/kg/injection, schedule: Q01DX009 (ip), vehicle: water): 97 % of control
- T/C (dose: 0.8 mg/kg/injection, schedule: Q01DX009 (ip), vehicle: water): 98 % of control
- T/C (dose: 1.6 mg/kg/injection, schedule: Q01DX009 (ip), vehicle: water): 88 % of control and 94 % of control
- T/C (dose: 3.2 mg/kg/injection, schedule: Q01DX009 (ip), vehicle: water): 92 % of control
- T/C (dose: 6.4 mg/kg/injection, schedule: Q01DX009 (ip), vehicle: water): 110 % of control
- T/C (dose: 12.8 mg/kg/injection, schedule: Q01DX009 (ip), vehicle: water): 97 % of control

SMILES: CC[NH-].CC[NH-].[Cl][Pt+2][Cl]
- T/C (dose: 3.12 mg/kg/injection, schedule: Q01DX009 (ip), vehicle: saline): 150 % of control
- T/C (dose: 3.12 mg/kg/injection, schedule: Q01DX009 (ip), vehicle: suspension in saline): 116 % of control
- T/C [6]: 162 % of control
- T/C [7]: 159 % of control
- T/C (dose: 12.5 mg/kg/injection, schedule: Q01DX009 (ip), vehicle: suspension in saline): 97 % of control

SMILES: COP(=O)(OC)C(=[N+]=[N-])P(=O)(OC(C)C)OC(C)C
- T/C (dose: 100.0 mg/kg/injection, schedule: Q01DX001 (ip), vehicle: saline): 99 % of control
- T/C (dose: 200.0 mg/kg/injection, schedule: Q01DX001 (ip), vehicle: saline): 101 % of control
- T/C (dose: 400.0 mg/kg/injection, schedule: Q01DX001 (ip), vehicle: saline): 100 % of control

SMILES: COc1ccc2c(c1)C(=O)C1(CC2)OC1c1ccncc1 (configuration not stated)
- T/C (dose: 100.0 mg/kg/injection, schedule: Q01DX009 (ip), vehicle: Klucel (hydroxypropylcellulose) (HPC)): 97 % of control
- T/C (dose: 200.0 mg/kg/injection, schedule: Q01DX009 (ip), vehicle: Klucel (hydroxypropylcellulose) (HPC)): 100 % of control

SMILES: C[Si](C)(C)O/C=C1\CCc2ccccc2C1=O
- T/C [14]: 100 % of control
- T/C [15]: 101 % of control
- T/C (dose: 200.0 mg/kg/injection, schedule: Q01DX005 (ip), vehicle: saline with Tween-80): 114 % of control

SMILES: COC(c1ccccc1)C1(O)CCN(C)CC1 (configuration not stated)
- T/C (dose: 72.0 mg/kg/injection, schedule: Q04DX002 (ip), vehicle: Klucel (hydroxypropylcellulose) (HPC)): 98 % of control
- T/C (dose: 144.0 mg/kg/injection, schedule: Q04DX002 (ip), vehicle: Klucel (hydroxypropylcellulose) (HPC)): 97 % of control
- T/C (dose: 288.0 mg/kg/injection, schedule: Q04DX002 (ip), vehicle: Klucel (hydroxypropylcellulose) (HPC)): 98 % of control

SMILES: CC(=O)C[n+]1ccccc1Oc1ccccc1
- T/C (dose: 25.0 mg/kg/injection, schedule: Q01DX005 (ip), vehicle: saline): 93 % of control
- T/C (dose: 50.0 mg/kg/injection, schedule: Q01DX005 (ip), vehicle: saline): 96 % of control

SMILES: CC(=O)OCC(=O)[C@@]1(O)CC[C@H]2[C@@H]3C[C@@H](C)C4=CC(=O)C=C[C@]4(C)[C@H]3[C@@H](O)C[C@@]21C
- T/C (dose: 100.0 mg/kg/injection, schedule: Q01DX009 (ip), vehicle: saline with Tween-80): 100 % of control
- T/C (dose: 200.0 mg/kg/injection, schedule: Q01DX009 (ip), vehicle: saline with Tween-80): 100 % of control
- T/C (dose: 400.0 mg/kg/injection, schedule: Q01DX009 (ip), vehicle: saline with Tween-80): 100 % of control

SMILES: CC(=O)O[C@H]1CC[C@@]2(C)C(CC[C@]3(C)C2CC=C2[C@@H]4CC(C)(C)CC[C@]4(C(=O)NCCN(C)C)CCC23C)C1(C)C (some centres not stated)
- T/C (dose: 7.5 mg/kg/injection, schedule: Q01DX005 (ip), vehicle: saline with Tween-80): 99 % of control
- T/C [12]: 100 % of control
- T/C [13]: 99 % of control
- T/C [9]: 103 % of control

SMILES: O=C(Nc1cc(Cl)cc(Cl)c1)N1CCOCC1
- T/C [9]: 92 % of control
- T/C [10]: 92 % of control
- T/C [11]: 92 % of control
